Tests used:
[1] = test system: amyloid plaques in the brains of TgCRND8 mice; assay: Histological ThioS (thioflavin S) study of brain plaques, long term treatment of TgCRND8 mice; assay type: in vivo, Mouse; details: 30 mg/kg; preliminary histochemical experiments
Protocol: The following abbreviations are used to designate these animals in the present study: TgCRND8.B6AF1/J(N2); TgCRND8.B6AF1/J(N3). Male and female transgenic mice were given daily subcutaneous (compound BX) or oral (compounds BW and BZ) administrations of the appropriate compounds for 8 or 16 weeks.
Starting at 9 weeks of age (±1 week) animals received daily administration of their respective treatment for a period of 8 or 16 weeks, at a dose of 30 or 100 mg/kg at 10 ml/kg. The route of administration was subcutaneous for water-soluble compounds (Compound BX) and oral for compounds solubilized in methylcellulose 1% (MC 1%) (Compounds BW and BZ). At the end of the treatment periods, plasma and perfused brains were collected for quantification of Aβ levels.
For the ThioS studies, the plaques in the brains of the mice were quantified as follows. Mice were transcardially perfused with saline solution. […] Image analysis to quantify the number of plaques and the area occupied by these plaques was performed using Image Pro Plus software (Media Cybernetics, MD, USA). […]
Specifically, increases in the areas and numbers of plaques (relative to vehicle treated control) of 10 to 19.99% are scored as “+”. Decreases in the areas and numbers of plaques of 10 to 19.99% are scored as “−”. Additionally, changes of 9.99% or less in either direction are scored as “0”.

[2] = test system: Aβ40 and Aβ42 peptides in plasma and brain of TgCRND8 mice; assay: Short term treatment in adult transgenic CRND8 mice overexpressing βAPP: Aβ levels in plasma and brain by ELISA; assay type: in vivo, Mouse; details: after 14 and 28 days of treatment, TgCRND8 mice
Method in brief: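 TgCRND8 mice (B6C3F1 backcross, ~11 weeks at treatment start) given short-term treatment; Aβ40 and Aβ42 in plasma and soluble/insoluble brain fractions measured by fluorometric sandwich ELISA (ex 460/em 560 nm). Levels normalized to vehicle (water or methylcellulose) groups and scored as +/− symbols by effect strength.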

CC(C)(C)NCCCS(=O)(=O)O [BX, 3-(t-butyl)amino-1-propanesulfonic acid]
area occupied by the plaques (ThioS staining of brain sections) [1]: decreased
number of plaques (ThioS staining of brain sections) [1]: decreased
levels of Aβ peptides in the plasma [2]: significant increase
